Some test systems named below: SK-MEL-2 melanoma; HCT-116 colon; HCC-2998 colon; SNB-19 CNS; SF-539 CNS; OVCAR-5 ovarian; CAKI-1 renal; EKVX NSCLC.
Common to all, as to assay: NCI-60 cell line screen, 48 h

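Test compounds were applied to cells in 96-well plates for 48 hours at 5 doses. GI50: concentration for 50% inhibition of growth. TGI marks complete inhibition of growth.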

As to `CS(=O)(=O)OC1CCC2(C#N)CCC1C2=O` (stereo not drawn), the TGI with SK-MEL-2 melanoma, with HCT-116 colon, in the assay with HCC-2998 colon, with SNB-19 CNS, with SF-539 CNS and in the assay with OVCAR-5 ovarian was more than 100 µM throughout. In addition, the TGI with CAKI-1 renal and with EKVX NSCLC was more than 100 µM each time.
Consider `O=[N+]([O-])c1ccc(C[P+](c2ccccc2)(c2ccccc2)c2ccccc2)cc1`, for which the TGI in the assay with SK-MEL-2 melanoma, in the assay on HCT-116 colon, with HCC-2998 colon, in the assay on SNB-19 CNS, in the assay with SF-539 CNS and with OVCAR-5 ovarian was more than 100 µM throughout. This compound came in with a TGI in the assay on EKVX NSCLC of more than 100 µM.
Turning to `CC1=C(C(=O)Nc2cc(=O)n(C)c(=O)n2C)C(c2ccco2)C(C(=O)Nc2cc(=O)n(C)c(=O)n2C)=C(C)N1`, the TGI in the assay on SK-MEL-2 melanoma, with HCC-2998 colon, in the assay on SNB-19 CNS, in the assay on SF-539 CNS, in the assay with OVCAR-5 ovarian and in the assay with CAKI-1 renal was more than 100 µM throughout. In the assay with EKVX NSCLC, this compound displayed a TGI of more than 100 µM.
For the compound `CC1(C)O[C@H]2[C@H](O)C[C@](O)(CO)C[C@H]2O1`, the TGI in the assay with SK-MEL-2 melanoma, with HCT-116 colon, with SNB-19 CNS, with SF-539 CNS, with OVCAR-5 ovarian and in the assay with CAKI-1 renal was more than 100 µM each time. The compound also displayed a TGI in the assay on EKVX NSCLC of more than 100 µM.
Regarding `CCc1ccccc1NC(=O)C1=C(C)NC(C)=C(C(=O)Nc2ccccc2CC)C1c1ccccc1Cl`, the TGI in the assay on SK-MEL-2 melanoma, with HCT-116 colon, with HCC-2998 colon, in the assay on SNB-19 CNS, in the assay on SF-539 CNS and in the assay on OVCAR-5 ovarian was more than 100 µM throughout. The TGI in the assay with CAKI-1 renal and with EKVX NSCLC was more than 100 µM throughout.
On to `Cc1c2ccncc2c(C)c2c1[nH]c1ccc(OC(C)C)cc12`, for which the TGI in the assay with SK-MEL-2 melanoma came out at 3.22 µM; with HCT-116 colon it was 2.04 µM; with HCC-2998 colon it was 3.48 µM; in the assay on SNB-19 CNS, 3.12 µM; in the assay with SF-539 CNS, 3.36 µM; with OVCAR-5 ovarian it was 2.87 µM. Moreover, the TGI with CAKI-1 renal amounted to 2.96 µM; in the assay on EKVX NSCLC, 2.81 µM.
With `O=C(O)CCC(=O)N1c2ccccc2CC1c1c[nH]c2ccccc12` (stereo not drawn), the TGI with SK-MEL-2 melanoma, with HCT-116 colon, with HCC-2998 colon, in the assay on SNB-19 CNS, with SF-539 CNS and in the assay on OVCAR-5 ovarian was more than 100 µM in each case. Also, the TGI with CAKI-1 renal and in the assay with EKVX NSCLC was more than 100 µM throughout.
Turning to `CC1=C(c2ccccc2)C(c2ccccc2)=C(c2ccccc2)C2(c3ccccc3)C(=O)C(C)CN12` (stereo not drawn), the TGI in the assay on SK-MEL-2 melanoma, in the assay with HCT-116 colon, with HCC-2998 colon, in the assay on SNB-19 CNS, with SF-539 CNS and with OVCAR-5 ovarian was more than 100 µM each time. Further, the TGI in the assay on CAKI-1 renal and with EKVX NSCLC was more than 100 µM each time.
`O=C1N(C2CCCCC2)CC12CCCCC2`: the TGI with SK-MEL-2 melanoma, in the assay on HCT-116 colon, in the assay on HCC-2998 colon, with SNB-19 CNS, with SF-539 CNS and with EKVX NSCLC was more than 100 µM each time.
`Cc1nnn[n-]1.N.N.N.N.N.[Cl-].[Co+3]`: the GI50 with SK-MEL-2 melanoma, with HCT-116 colon, in the assay on HCC-2998 colon, with SNB-19 CNS, in the assay with SF-539 CNS and with OVCAR-5 ovarian was more than 100 µM each time. Also, in the assay with EKVX NSCLC, the GI50 was more than 100 µM. In addition, the TGI in the assay on SK-MEL-2 melanoma, in the assay on HCT-116 colon, in the assay with HCC-2998 colon, in the assay on SNB-19 CNS, in the assay on SF-539 CNS and in the assay on OVCAR-5 ovarian was more than 100 µM throughout. The TGI in the assay on EKVX NSCLC was more than 100 µM.
As to `O=C(O)C1=C(O)C(C(=O)O)C23CCCCCCCCCCC12C(C(=O)O)C(O)=C3C(=O)O` (stereo not drawn), the TGI in the assay on SK-MEL-2 melanoma, with HCC-2998 colon, with SNB-19 CNS, with SF-539 CNS, in the assay with OVCAR-5 ovarian and in the assay on EKVX NSCLC was more than 100 µM each time.
Turning to `COc1cc(Br)c(C=Nc2cccc3cc(OC)c(OC)cc23)cc1OC`, the TGI in the assay on HCT-116 colon was more than 100 µM; with HCC-2998 colon, more than 100 µM; with SNB-19 CNS it was more than 100 µM; in the assay with SF-539 CNS it was 66.9 µM; in the assay on OVCAR-5 ovarian, more than 100 µM; with CAKI-1 renal, more than 100 µM. In the assay on EKVX NSCLC, the TGI is more than 100 µM.
With `O/N=C1/C(=C/c2ccc3c(c2)OCO3)CCCC1C(NO)c1ccc2c(c1)OCO2` (stereo not drawn), the TGI in the assay with SK-MEL-2 melanoma was 48.1 µM; in the assay with HCT-116 colon, 31.9 µM; with HCC-2998 colon it was 55.5 µM; in the assay on SNB-19 CNS, more than 100 µM; in the assay with SF-539 CNS, 32.4 µM; with CAKI-1 renal, 94.6 µM. In the assay with EKVX NSCLC, this compound showed a TGI of 89.1 µM.
`O=C(O)CCCSC(=O)Nc1ccc(N=Nc2ccccc2)cc1`: the TGI in the assay with SK-MEL-2 melanoma, in the assay with HCT-116 colon, in the assay on HCC-2998 colon, with SNB-19 CNS, in the assay with SF-539 CNS and with OVCAR-5 ovarian was more than 100 µM throughout. Also, the TGI in the assay on CAKI-1 renal and in the assay with EKVX NSCLC was more than 100 µM in each case.
In the case of `C=CCNC(=O)N(CCCCC(NC(C)=O)C(=O)NCc1ccccc1)Cc1ccccc1` (stereo not drawn), the TGI with SK-MEL-2 melanoma, with SNB-19 CNS, in the assay with SF-539 CNS, in the assay on OVCAR-5 ovarian, in the assay on CAKI-1 renal and with EKVX NSCLC was more than 100 µM throughout.
Consider `COc1ccc(C23C(=O)c4ccccc4N2O[C@H]2C(=O)N(c4ccccc4)C(=O)[C@H]23)cc1` (stereo partly drawn), for which the TGI in the assay with SK-MEL-2 melanoma, in the assay on HCT-116 colon, in the assay on HCC-2998 colon, with SNB-19 CNS, in the assay on SF-539 CNS and with OVCAR-5 ovarian was more than 100 µM each time. In addition, the TGI with CAKI-1 renal and in the assay on EKVX NSCLC was more than 100 µM in each case.

These data come from PubChem BioAssay (NCI).
